What all share (assay): relative viability (nuclei count vs DMSO), 5 days (fraction); higher = more cells survive
Compound in the test “MK-8033 + Pictilisib”: Cn1cc(-c2cnc3ccc4ccc(CS(=O)(=O)NCc5ccccn5)cc4c(=O)c3c2)cn1 [MK-8033] + CS(=O)(=O)N1CCN(Cc2cc3nc(-c4cccc5[nH]ncc45)nc(N4CCOCC4)c3s2)CC1 [Pictilisib] (partner 1 µM)
In short, it runs like this:
(§1)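 Each reported value is a median over duplicate plates. It expresses relative viability: treated-well nuclei count divided by vehicle-well nuclei count. Lung cancer cell lines in 1536-well plates were dosed by pin tool a day after seeding, alone with one drug or with a fixed anchor-drug dose plus five library-drug doses (not always all listed) in √10 steps, and nuclei were counted after 5 days.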

Compound in the test “MK-8033 + Vorinostat”: Cn1cc(-c2cnc3ccc4ccc(CS(=O)(=O)NCc5ccccn5)cc4c(=O)c3c2)cn1 [MK-8033] + O=C(CCCCCCC(=O)Nc1ccccc1)NO [Vorinostat] (partner 1 µM)
In short, it runs like this: as §1

Compound in the test “RU-SKI 43 + Palbociclib”: CC[C@@H](C)CNCC(=O)N1CCC2=C([C@@H]1COC3=CC=CC(=C3)C)C=CS2 [RU-SKI 43] + CC(=O)c1c(C)c2cnc(Nc3ccc(N4CCNCC4)cn3)nc2n(C2CCCC2)c1=O [Palbociclib] (partner 0.5 µM)
In short, it runs like this: as §1

Compound in the test “Irinotecan + Decitabine”: CCc1c2c(nc3ccc(OC(=O)N4CCC(N5CCCCC5)CC4)cc13)-c1cc3c(c(=O)n1C2)COC(=O)[C@]3(O)CC [Irinotecan] + Nc1ncn([C@H]2C[C@H](O)[C@@H](CO)O2)c(=O)n1 [Decitabine] (partner 2 µM)
In short, it runs like this:
as §1

For 1 cell line, relative viability results are on record in the supplement of paper PMC10307832.

As for UMC-11, the relative viability with MK-8033 + Pictilisib (first compound 0.02 µM) was 0.746; with MK-8033 + Pictilisib (first compound 0.06325 µM), 0.511; with MK-8033 + Pictilisib (first compound 0.2 µM), 0.804; with MK-8033 + Pictilisib (first compound 0.6325 µM), 0.932; in the test with MK-8033 + Pictilisib (first compound 2 µM), 0.699; with MK-8033 + Vorinostat (first compound 0.02 µM) it was 0.32. Moreover, the relative viability with MK-8033 + Vorinostat (first compound 0.06325 µM) was 0.345; with MK-8033 + Vorinostat (first compound 0.2 µM), 0.46; with MK-8033 + Vorinostat (first compound 0.6325 µM) it was 0.419; with MK-8033 + Vorinostat (first compound 2 µM), 0.409; with RU-SKI 43 + Palbociclib (first compound 0.1 µM), 0.317; with RU-SKI 43 + Palbociclib (first compound 0.3162 µM), 0.31. In addition, the relative viability with RU-SKI 43 + Palbociclib (first compound 1 µM) was 0.351; with RU-SKI 43 + Palbociclib (first compound 3.162 µM), 0.314; in the test with RU-SKI 43 + Palbociclib (first compound 10 µM) it was 0.323; with Irinotecan + Decitabine (first compound 0.6325 µM), 0.589; with Irinotecan + Decitabine (first compound 2 µM), 0.461; with Irinotecan + Decitabine (first compound 6.325 µM), 0.347. The relative viability with Irinotecan + Decitabine (first compound 20 µM) turned out to be 0.2.
